Data on 19 molecules can be found in US5075301A, “Furan derivatives useful for the treatment of gastro-intestinal disorders” (Kyowa Hakko Kogyo, Co., Ltd., priority 1989, dated 1991).

For one series, the system named is male dd mice. Kind of series: Acute toxicity test (minimum lethal dose, MLD). In kind it is in vivo. Particulars: p.o., 7 days. Here is the method: Using male dd mice weighing 20±1 g in groups of 3, each test compound was orally administered (300 mg/kg, p.o.).
In the next series the test system is ileal strips. Kind of series: Gastrointestinal motility stimulation test (ileal strip, electric transmural stimulation). Also noted: species or system male Hartley guinea pigs. Particulars: Cavia porcellus; for activation at 1 µg/mL: read-out: Amplification Degree (Electric Transmural Stimulation), 10^-6 g/ml; for activation at 10 µg/mL: read-out: Amplification Degree (Electric Transmural Stimulation), 10^-5 g/ml. The protocol:
From male Hartley guinea pigs weighing 250-400 g, ileal strips, 2-3 cm long, were isolated. The ileal strip was suspended in a Tyrode's solution bath (30 ml) while supplying a mixture gas of 95% O2 -5% CO2 and maintained at 37±1° C. and using an isotonic transducer the longitudinal contractions of the strip were recorded. Supramaximal electric transmural stimulation of 1-millisecond duration was given at 10-second intervals. Each test compound was dissolved or suspended in physiological saline and added into the organ bath. The effect of each test compound on electric transmural stimulation was calculated from the amplitude of contractions (A) before administration and the amplitude of contractions (B) after administration using the following equation. [formula]

For series [1], the system named is histamine H2 -receptor. Kind of series: antihistaminic (histamine H2 -receptor blocking) activity. Particulars: no method given.
Series [2] has as its system histamine H2 -receptor. To be noted: known; cited from earlier work.
Another series relates to gastrointestinal tract. To be noted: Scand. J. Gastroenterol., 21 (Suppl. 121), 30 (1986); cited from earlier work.

As for `N#CC(C#N)=C1NCCN1CCNCc1ccc(CN2CCSCC2)o1` [Compound 38], the “Acute Toxicity (MLD)” value in the series with male dd mice was more than 300 mg/kg. Besides, the activation at 1 µg/mL with ileal strips was 34.5%.

With `N#CC(C#N)=C1NCCN1CCNCc1ccc(CN2CCCC2)o1` [Compound 27, [1-[2-[(5-Pyrrolidinylmethyl-2-furanyl)methylamino]ethyl]-2-imidazolidinylidene]propanedinitrile], the “Acute Toxicity (MLD)” value in the series with male dd mice was more than 300 mg/kg. Besides, in the series with ileal strips, the activation at 1 µg/mL came to 12%.

For the molecule `CNC(NCCNCc1ccc(CN(C)C)o1)=C(C#N)C#N` [Compound 2, [[2-[(5-Dimethylaminomethyl-2-furanyl)methylamino]ethyl]amino(methylamino)methylene]propanedinitrile], the “Acute Toxicity (MLD)” value in the series on male dd mice was more than 300 mg/kg. Further, in the series on ileal strips, the activation at 10 µg/mL was 80.5% and the activation at 1 µg/mL was found to be 31%.

Regarding `CNC(NCCNCc1ccc(CN(C(C)C)C(C)C)o1)=C(C#N)C#N` [Compound 12, [[2-[(5-Diisopropylaminomethyl-2-furanyl)methylamino]ethyl]amino(methylamino)methylene]propanedinitrile], the “Acute Toxicity (MLD)” value in the series with male dd mice is on record as more than 300 mg/kg. For the same molecule, in the series on ileal strips, the activation at 10 µg/mL stood at 55.8% and the activation at 1 µg/mL was 34.3%.

Consider `CCN(CC)CCNC(=O)c1cc(Cl)c(N)cc1OC` [Metoclopramide, reference compound], for which the “Acute Toxicity (MLD)” value with male dd mice is reported as 200 mg/kg. For the same molecule, in the series with ileal strips, the activation at 10 µg/mL was found to be 33.4% and the activation at 1 µg/mL is 18%.

As for `N#CC(C#N)=C1NCCN1CCNCc1ccc(CN2CCCCCC2)o1` [Compound 29, [1-[2-[(5-Perhydroazepinylmethyl-2-furanyl)methylamino]ethyl]-2-imidazolidinylidene]propanedinitrile], the “Acute Toxicity (MLD)” value in the series with male dd mice turned out to be 200 mg/kg. The activation at 1 µg/mL in the series with ileal strips worked out at 68%.

Regarding `CN(CCN1CCNC1=C(C#N)C#N)Cc1ccc(CN2CCCCC2)o1` [Compound 45, [1-[2-[N-(Methyl)-N-[(5-piperidinomethyl-2-furanyl)methyl]amino]ethyl]-2-imidazolidinylidene]-propanedinitrile], the “Acute Toxicity (MLD)” value with male dd mice is listed as more than 300 mg/kg. In the series with ileal strips, the activation at 10 µg/mL is 72.1% and the activation at 1 µg/mL turned out to be 43.8%.

Consider `COC1CCCN(Cc2ccc(CNCCN3CCNC3=C(C#N)C#N)o2)C1` (centres unmarked) [Compound 34, [1-[2-[[5-(3-Methoxypiperidinomethyl)-2-furanyl]methylamino]ethyl]-2-imidazolidinylidene]propanedinitrile], for which the “Acute Toxicity (MLD)” value in the series on male dd mice was more than 300 mg/kg. In the series with ileal strips, the activation at 10 µg/mL amounted to 81.3% and the activation at 1 µg/mL was determined as 23%.

Take `CNC(=C[N+](=O)[O-])NCCSCc1ccc(CN(C)C)o1` [Ranitidine, reference compound]: the “Acute Toxicity (MLD)” value in the series with male dd mice is more than 300 mg/kg. In the series with ileal strips, the activation at 10 µg/mL was found to be 42.2% and the activation at 1 µg/mL was determined as 35%. Moreover, the antihistaminic activity entry in the series with histamine H2 -receptor [1] was “found”. Moreover, the “histamine H2 -receptor blocking activity” value with histamine H2 -receptor [2] was “having histamine H2 -receptor blocking activity”. In addition, the “activity to stimulate motility of the gastrointestinal tract” value in the series with gastrointestinal tract is “weak”.

For the molecule `CC1CCN(Cc2ccc(CNCCN3CCNC3=C(C#N)C#N)o2)CC1` [Compound 32, [1-[2-[[5-(4-Methylpiperidinomethyl)-2-furanyl]methylamino]ethyl]-2-imidazolidinylidene]propanedinitrile], in the series on male dd mice, the “Acute Toxicity (MLD)” value is given as more than 300 mg/kg. Further, the activation at 1 µg/mL in the series on ileal strips came to 52%.

`CNC(NCCNC(=O)c1ccc(CN(C)C)o1)=C(C#N)C#N` [Compound 10, 5-(Dimethylaminomethyl)-N-[2-(1-methylamino-2,2-dicyanovinylamino)ethyl]-2-furancarboxamide]: in the series on male dd mice, the “Acute Toxicity (MLD)” value is reported as more than 300 mg/kg. Besides, in the series with ileal strips, the activation at 10 µg/mL was 36.4% and the activation at 1 µg/mL was 15.3%.

With `CCN(C)Cc1ccc(CNCCN2CCNC2=C(C#N)C#N)o1` [Compound 25, [1-[2-[(5-Ethylmethylaminomethyl-2-furanyl)methylamino]ethyl]-2-imidazolidinylidene]propanedinitrile], the “Acute Toxicity (MLD)” value in the series on male dd mice is on record as more than 300 mg/kg. Moreover, the activation at 1 µg/mL in the series with ileal strips is 63.5%.

Take `CNC(NCCCNCc1ccc(CN(C)C)o1)=C(C#N)C#N` [Compound 6, [[3-[(5-Dimethylaminomethyl-2-furanyl)methylamino]propylamino](methylamino)methylene]propanedinitrile]: the “Acute Toxicity (MLD)” value in the series with male dd mice is on record as more than 300 mg/kg. In addition, in the series on ileal strips, the activation at 10 µg/mL was determined as 34%.

With `CNC(NCCNCc1ccc(CN2CCCCC2)o1)=C(C#N)C#N` [Compound 14, [[2-[(5-Piperidinomethyl-2-furanyl)methylamino]ethyl](methylamino)methylene]propanedinitrile], the “Acute Toxicity (MLD)” value in the series on male dd mice is given as more than 300 mg/kg. Moreover, in the series on ileal strips, the activation at 10 µg/mL stood at 79.3% and the activation at 1 µg/mL came out at 37.3%.

For the molecule `CNC(=C[N+](=O)[O-])NCCNCc1ccc(CN(C)C)o1` [Compound 1, N-[2-[(5-Dimethylaminomethyl-2-furanyl)methylamino]ethyl]-N'-methyl-2-nitroethene-1,1-diamine], the “Acute Toxicity (MLD)” value with male dd mice is more than 300 mg/kg. In addition, the activation at 10 µg/mL with ileal strips amounted to 30%.

Consider `CNc1c(NCCNCc2ccc(CN3CCCCC3)o2)c(=O)c1=O` [Compound 17, 1-Methylamino-2-[[2-[(5-piperidinomethyl-2-furanyl)methylamino]ethyl]amino]cyclobutene-3,4-dione], for which the “Acute Toxicity (MLD)” value with male dd mice is more than 300 mg/kg. In the series with ileal strips, the activation at 10 µg/mL is 75% and the activation at 1 µg/mL stood at 19.5%.

As for `CNC(NCCNCc1ccc(CN2CCCC2)o1)=C(C#N)C#N` [Compound 13, [[2-[(5-Pyrrolidinylmethyl-2-furanyl)methylamino]ethyl](methylamino)methylene]propanedinitrile], the “Acute Toxicity (MLD)” value in the series on male dd mice is more than 300 mg/kg. In the series on ileal strips, the activation at 10 µg/mL is 70.8% and the activation at 1 µg/mL was determined as 34.5%.

As to `CN(C)Cc1ccc(CNCCN2CCNC2=C(C#N)C#N)o1` [Compound 22, [1-[2-[(5-Dimethylaminomethyl-2-furanyl)methylamino]ethyl]-2-imidazolidinylidene]propanedinitrile], the “Acute Toxicity (MLD)” value with male dd mice is more than 300 mg/kg. The activation at 1 µg/mL with ileal strips was determined as 56%.

As to `N#CC(C#N)=C1NCCN1CCNCc1ccc(CN2CCCCC2)o1` [Compound 28, [1-[2-[(5-Piperidinomethyl-2-furanyl)methylamino]ethyl]-2-imidazolidinylidene]propanedinitrile], the “Acute Toxicity (MLD)” value with male dd mice was found to be 100 mg/kg.
